Here are results for ten compounds from patent US8518945B2, “Pyrrolopyrazine kinase inhibitors” (Hoffmann-La Roche Inc., priority 2010, dated 2013).

For series [1], the target named is T1, h-jak3(810-1124) (JAK3: Recombinant human kinase domain) (Homo sapiens, UniProt P52333).
T1 construct: jak3(810- 1124)-sf9-c; made in house; host or cells: Sf9
Briefly: Determination of IC50 of Janus Kinase (JAK) inhibition: JAK3 radioactive end-point 33P-ATP kinase assay. The class given is biochemical. The note with it: no additive; ATP 1.5 uM, peptide 50 uM, 20 minutes, room temperature; read-out: Ic50 h-jak3(810-1124)-sf9-c: no additive.
Excerpt: Determination of IC50 of Janus Kinase (JAK) Inhibition:
Enzymes and peptide substrate used are described below: • JAK1: Recombinant human kinase domain from Invitrogen (Cat # PV4774) • JAK3: Recombinant human kinase domain from Millipore (Cat # 14-629) or prepared. • JAK2: Recombinant human kinase domain from Millipore (Cat # 14-640) • Substrate: N-terminally biotinylated 14-mer peptide derived from activation loop of JAK1 with sequence of the peptide substrate: Biotin-[sequence]
Assay conditions— used are described below: • Assay Buffer: JAK Kinase Buffer: 50 mM Hepes [pH 7.2], 10 mM MgCl2, 1 mM DTT, 1 mg/ml BSA. The assay was carried out in this buffer. • Assay Format The kinase activity of all three JAK kinases was measured using a radioactive, end-point assay and with trace amounts of ^33P-ATP. The assays were carried out in 96-well polypropylene plates. Experimental Method:
All concentrations were final in the reaction mixture and all incubations were carried at room temperature. […] Final concentration of DMSO in the reaction was 10%. • 2) Compounds were preincubated with enzyme (0.5 nM JAK3 (commercially available), 0.2 nM JAK3 (prepared), 1 nM JAK2, 5 nM JAK1) for 10 minutes. • 3) Reactions were initiated by the addition of a cocktail of the two substrates (ATP and peptide premixed in the JAK Kinase Buffer). In the JAK2/JAK3 assays, ATP and the peptide were used at concentrations of 1.5 uM and 50 uM, respectively. JAK1 assay was carried out at an ATP concentration of 10 uM and a peptide concentration of 50 uM. • 4) The duration of the assay for JAK2 and JAK3 is 20 minutes. JAK1 assay was carried out for 40 minutes. With all three enzymes, reactions were terminated by the addition of 0.5M EDTA to a final concentration of 100 mM. • 5) 25 ul of terminated reactions were transferred to 150 ul of a 7.5% (v/v) slurry of streptavidin-coated sepharose beads in MgCl2- and CaCl2-free 1× Phosphate Buffered Saline containing 50 mM of EDTA in 96-well, 1.2 um MultiScreen-BV filter plates. • 6) After a 30-minute incubation, the beads were washed under vacuum with the following buffers: • a. 3 to 4 washes with 200 ul of 2M NaCl. • b. 3 to 4 washes with 200 ul of 2M NaCl plus 1% (v/v) phosphoric acid. • c. 1 wash with water. • 7) Washed plates were dried in a 60° C. oven for between 1 to 2 hours. • 8) 70 ul of Microscint 20 scintillation fluid was added to each well of filter plates and after at least 30 minutes of incubation, radioactive counts were measured in a Perkinelmer microplate scintillation counter.

In general, melting point refers to the temperature of the solid-liquid transition. What is called IC50 is the concentration needed to halve the response being measured.

T1 sequence (P52333 810-1124): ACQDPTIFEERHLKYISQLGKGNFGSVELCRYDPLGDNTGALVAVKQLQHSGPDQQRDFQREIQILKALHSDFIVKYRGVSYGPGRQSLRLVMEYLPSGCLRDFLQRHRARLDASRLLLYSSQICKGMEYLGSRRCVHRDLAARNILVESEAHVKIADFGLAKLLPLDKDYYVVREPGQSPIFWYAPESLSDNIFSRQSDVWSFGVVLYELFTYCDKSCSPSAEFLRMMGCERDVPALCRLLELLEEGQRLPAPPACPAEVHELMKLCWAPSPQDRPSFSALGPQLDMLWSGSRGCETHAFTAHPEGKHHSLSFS

The compound `CCn1cc(-c2cnc3[nH]cc(C(=O)N[C@@H](C(=O)N4CCC(C)(C#N)C4)C(C)(C)C)c3n2)cn1` (stereo partly drawn) [Example I-28, 2-(1-Ethyl-1H-pyrazol-4-yl)-5H-pyrrolo[2,3-b]pyrazine-7-carboxylic acid [(R)-1-(3-cyano-3-methyl-pyrrolidine-1-carbonyl)-2,2-dimethyl-propyl]-amide] registered a melting point of 228 to 230 °C. Also, in series [1], the IC50 worked out at 0.51 nM.
As to `CCn1cc(-c2cnc3[nH]cc(C(=O)N[C@@H](C(=O)N4CCCC4)C4(C)CC4)c3n2)cn1` [Example I-34, 2-(1-Ethyl-1H-pyrazol-4-yl)-5H-pyrrolo[2,3-b]pyrazine-7-carboxylic acid [(R)-1-(1-methyl-cyclopropyl)-2-oxo-2-pyrrolidin-1-yl-ethyl]-amide], the melting point fell in the range of 218 to 220 °C. Besides, in series [1], the IC50 was found to be 0.87 nM.
Compound `Cc1nc(-c2cnc3[nH]cc(C(=O)N[C@@H](C(=O)N4CC(C#N)C4)C4CC4)c3n2)cn1CC(F)(F)F` [Example I-165, 2-[2-Methyl-1-(2,2,2-trifluoro-ethyl)-1H-imidazol-4-yl]-5H-pyrrolo[2,3-b]pyrazine-7-carboxylic acid [(R)-2-(3-cyano-azetidin-1-yl)-1-cyclopropyl-2-oxo-ethyl]-amide] yielded a melting point of 255 to 256 °C. Also, in series [1], the half-maximal inhibitory concentration (IC50) worked out at 0.68 nM.
Compound `N#CC1CN(C(=O)[C@H](NC(=O)c2c[nH]c3ncc(-c4ccc(N5CCOCC5)cc4)nc23)C2CC2)C1` [Example 145, 2-(4-Morpholin-4-yl-phenyl)-5H-pyrrolo[2,3-b]pyrazine-7-carboxylic acid [(R)-2-(3-cyano-azetidin-1-yl)-1-cyclopropyl-2-oxo-ethyl]-amide] gave a melting point of 186 to 192 °C.
In turn, `N#CC1CN(C(=O)[C@H](NC(=O)c2c[nH]c3ncc(-c4ccccc4)nc23)C2CC2)C1` [Example 147, 2-Phenyl-5H-pyrrolo[2,3-b]pyrazine-7-carboxylic acid [(R)-2-(3-cyano-azetidin-1-yl)-1-cyclopropyl-2-oxo-ethyl]-amide] returned a melting point of 200 to 202 °C.
On the same count and under the same terms, then `CC(C)[C@@H](NC(=O)c1c[nH]c2ncc(C3CC3)nc12)C(=O)N1CCCC1` [Example 24, 2-Cyclopropyl-5H-pyrrolo[2,3-b]pyrazine-7-carboxylic acid [(R)-2-methyl-1-(pyrrolidine-1-carbonyl)-propyl]-amide], with 171 to 172.1 °C.
As for `CC[C@@H](NC(=O)c1c[nH]c2ncc(C3CC3)nc12)C(=O)N1CCCC1` [Example 23, 2-Cyclopropyl-5H-pyrrolo[2,3-b]pyrazine-7-carboxylic acid [(R)-1-(pyrrolidine-1-carbonyl)-propyl]-amide], the melting point fell in the range of 240.9 to 242.5 °C.
As to `N#CC1CN(C(=O)[C@H](NC(=O)c2c[nH]c3ncc(-c4ccc(C(F)(F)F)cc4)nc23)C2CC2)C1` [Example 142, 2-(4-Trifluoromethyl-phenyl)-5H-pyrrolo[2,3-b]pyrazine-7-carboxylic acid [(R)-2-(3-cyano-azetidin-1-yl)-1-cyclopropyl-2-oxo-ethyl]-amide], the melting point lay in the range of 207 to 209 °C.
With `CC(=O)N1CCN(c2ccc(-c3cnc4[nH]cc(C(=O)N[C@@H](C(=O)N5CC(C#N)C5)C5CC5)c4n3)cc2)CC1` [Example 143, 2-[4-(4-Acetyl-piperazin-1-yl)-phenyl]-5H-pyrrolo[2,3-b]pyrazine-7-carboxylic acid [(R)-2-(3-cyano-azetidin-1-yl)-1-cyclopropyl-2-oxo-ethyl]-amide], the melting point lay in the range of 185 to 188 °C.
Compound `CC(C)[C@@H](NC(=O)c1c[nH]c2ncc(C3CC3)nc12)C(=O)N1CCCCC1` [Example 26, 2-Cyclopropyl-5H-pyrrolo[2,3-b]pyrazine-7-carboxylic acid [(R)-2-methyl-1-(piperidine-1-carbonyl)-propyl]-amide] returned a melting point of 183 to 185 °C.
